Test systems include SK-OV-3 ovarian; MCF7 breast; BT-549 breast; A498 renal; EKVX NSCLC; SK-MEL-5 melanoma; SW-620 colon; HCT-15 colon; UACC-257 melanoma; SR leukemia.
What all share (test): NCI tumour cell line growth inhibition, 48 h

“And” between values parts separate entries of the source, which are not always exact repeats. Equal entries are not always repeated.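 Results reflect a 48-hour exposure of cells in 96-well plates to compound at five concentrations. GI50 marks 50% less growth. TGI marks complete inhibition of growth.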

In the case of `CCN1CCN(c2nc(NNC(=O)c3ccccc3)nc(N3CCN(C(c4ccccc4)c4ccccc4)CC3)n2)CC1`, the GI50 in the experiment with SK-OV-3 ovarian is 5.93 µM; in the experiment with MCF7 breast, 1.39 µM; in the experiment with BT-549 breast, 2.49 µM; with A498 renal, 6.3 µM; in the experiment with EKVX NSCLC, 10.3 µM; with SK-MEL-5 melanoma, 1.73 µM. In addition, the GI50 in the experiment with SW-620 colon was 2.3 µM; in the experiment on HCT-15 colon it was 2.3 µM; in the experiment with UACC-257 melanoma, 1.9 µM; in the experiment with SR leukemia, 1780 nM. For the same compound, the TGI with SK-OV-3 ovarian came out at 22.1 µM; in the experiment with MCF7 breast, 3.46 µM; in the experiment with BT-549 breast it was 7.6 µM; in the experiment on A498 renal it was 27.1 µM; in the experiment with EKVX NSCLC it was 30 µM; in the experiment with SK-MEL-5 melanoma, 3.14 µM. In addition, the TGI is 5.88 µM in the experiment with SW-620 colon, 5.84 µM in the experiment with HCT-15 colon, 4.25 µM with UACC-257 melanoma and 4.69 µM with SR leukemia.

As to `CC1OC(OC2C(O[C@H]3CC[C@@]4(C)C(=CC[C@H]5[C@@H]6C[C@@H]7O[C@]8(CC[C@@H](C)CO8)[C@@H](C)[C@@H]7[C@@]6(C)CC[C@@H]54)C3)OC(CO)C(OC3OC(CO)C(O)C3O)C2O)C(O)C(O)C1O` (stereo partly drawn), the GI50 was 1.29 µM in the experiment with SK-OV-3 ovarian; 1.11 µM in the experiment on MCF7 breast; 1.37 µM in the experiment on BT-549 breast; 0.733 µM with A498 renal; 1.05 µM in the experiment with EKVX NSCLC; 0.487 µM with SK-MEL-5 melanoma. Also, the results for the GI50 with SW-620 colon, in the experiment with HCT-15 colon and in the experiment with UACC-257 melanoma were 0.195 µM, 0.621 µM and 1.14 µM, respectively. In addition, the TGI was 1.76 µM and 2.55 µM in the experiment with SK-OV-3 ovarian; 1.52 µM and 2.3 µM in the experiment with MCF7 breast; 1.84 µM and 2.66 µM with BT-549 breast; 1.62 µM and 1.98 µM with A498 renal; 1.77 µM and 2.23 µM in the experiment on EKVX NSCLC; 1.43 µM and 1.67 µM with SK-MEL-5 melanoma. The TGI in the experiment with SW-620 colon is 2.57 µM and 0.419 µM; in the experiment with HCT-15 colon, 1.99 µM and 1.94 µM; in the experiment with UACC-257 melanoma, 1.71 µM and 2.35 µM; in the experiment with SR leukemia, 2.25 µM.

On to `C=C(Cn1c2ccccc2c(=O)c2ccccc21)c1ccc(C(=O)Nc2ccccc2N)cc1`, for which the GI50 is 5.99 µM in the experiment with SK-OV-3 ovarian; above 100 µM with MCF7 breast; 4.07 µM in the experiment on BT-549 breast; above 21.5 µM in the experiment on EKVX NSCLC; 4.58 µM in the experiment with SK-MEL-5 melanoma; 6.56 µM with SW-620 colon. The results for the GI50 in the experiment with HCT-15 colon, in the experiment with UACC-257 melanoma and with SR leukemia were 3.48 µM, above 100 µM and 605 nM, respectively. For the same compound, the TGI is above 100 µM with SK-OV-3 ovarian; above 100 µM in the experiment on MCF7 breast; above 100 µM in the experiment on BT-549 breast; above 27.2 µM in the experiment with A498 renal; above 100 µM with EKVX NSCLC; above 100 µM in the experiment on SK-MEL-5 melanoma. Besides, the TGI is above 100 µM in the experiment with SW-620 colon, above 100 µM in the experiment with HCT-15 colon, above 100 µM in the experiment with UACC-257 melanoma and 2.25 µM in the experiment on SR leukemia.

Turning to `Oc1ccccc1C=Nc1nc(OCc2ccccc2)nc2[nH]ncc12`, the GI50 in the experiment with SK-OV-3 ovarian was 25.9 µM; in the experiment on MCF7 breast, 15.5 µM; in the experiment on BT-549 breast, 33.7 µM; in the experiment with A498 renal, 20.8 µM; in the experiment on EKVX NSCLC, 30.1 µM; in the experiment with SK-MEL-5 melanoma, 15.1 µM. Besides, the GI50 with SW-620 colon is 27.4 µM; in the experiment with HCT-15 colon, 38.3 µM; in the experiment on UACC-257 melanoma, 34.2 µM; in the experiment with SR leukemia, 13100 nM. Further, the TGI was found to be 55.4 µM in the experiment on SK-OV-3 ovarian; 35.2 µM in the experiment on MCF7 breast; 86.7 µM in the experiment with BT-549 breast; 56.9 µM in the experiment on A498 renal; 97.8 µM in the experiment with EKVX NSCLC; 29.7 µM with SK-MEL-5 melanoma. Further, the TGI with SW-620 colon was 76.1 µM; in the experiment with HCT-15 colon, above 100 µM; in the experiment with UACC-257 melanoma, above 100 µM; in the experiment with SR leukemia it was 39.5 µM.

In the case of `NC(N)=N/N=C/c1c(-c2ccncc2)nc2sc(Cl)cn12`, the GI50 with SK-OV-3 ovarian is 22.4 µM; in the experiment with MCF7 breast it was 5.19 µM; in the experiment on BT-549 breast it was 10.3 µM; in the experiment with A498 renal it was 17.4 µM; with EKVX NSCLC, 21 µM; with SK-MEL-5 melanoma, 18.1 µM. The GI50 in the experiment on SW-620 colon was 7.34 µM; with HCT-15 colon it was 17.6 µM; with UACC-257 melanoma it was 21.5 µM; in the experiment on SR leukemia, 2240 nM. Moreover, the TGI is 48.1 µM in the experiment with SK-OV-3 ovarian; above 94.2 µM with MCF7 breast; 27.8 µM with BT-549 breast; 41.2 µM with A498 renal; 39.2 µM in the experiment on EKVX NSCLC; 36.2 µM in the experiment with SK-MEL-5 melanoma. Further, the TGI in the experiment on SW-620 colon was found to be 18 µM; in the experiment with HCT-15 colon, 36.3 µM; in the experiment on UACC-257 melanoma it was 40.6 µM; in the experiment on SR leukemia, 4.97 µM.

Take `Nc1ncnc2c1nc(Cl)n2C1OC(CO)C(O)C1O` (stereo not drawn): the TGI is above 100 µM in the experiment on SK-OV-3 ovarian; above 100 µM in the experiment with MCF7 breast; above 100 µM with BT-549 breast; above 100 µM in the experiment with A498 renal; above 71.1 µM in the experiment on EKVX NSCLC; above 42.2 µM with SK-MEL-5 melanoma. Also, the TGI in the experiment with SW-620 colon, in the experiment with HCT-15 colon, with UACC-257 melanoma and in the experiment with SR leukemia was above 100 µM throughout.

In the case of `CCSc1ncc(Br)c(Sc2nc(N)nc3nc[nH]c23)n1`, the GI50 in the experiment with SK-OV-3 ovarian was 2.76 µM; with MCF7 breast it was 3.04 µM; in the experiment on BT-549 breast, 4.11 µM; in the experiment with A498 renal, 10.1 µM; in the experiment on EKVX NSCLC, 3.4 µM; with SK-MEL-5 melanoma, 3.8 µM. Besides, the GI50 with SW-620 colon was 17.7 µM; in the experiment on HCT-15 colon, 4.07 µM; in the experiment with UACC-257 melanoma it was 12.4 µM; in the experiment on SR leukemia, 1830 nM. Also, the TGI was 48.9 µM in the experiment on SK-OV-3 ovarian; above 100 µM in the experiment on MCF7 breast; 67 µM with BT-549 breast; above 100 µM with A498 renal; above 100 µM with EKVX NSCLC; 49.8 µM in the experiment with SK-MEL-5 melanoma. The TGI in the experiment on SW-620 colon, in the experiment with HCT-15 colon, in the experiment with UACC-257 melanoma and in the experiment on SR leukemia was above 100 µM in each case.

The values are drawn from PubChem BioAssay (NCI).
